Where only a bound is given, the exact number is not on record here.

For one assay, the system named is NCI-N87 cells. Kind of assay: Cell viability assay (CellTiter-Glo 2.0), NCI-N87. The format is cell-based. To be noted: Homo sapiens, NCI-N87, 72 h; read-out: IC50 (cell growth). On the procedure:
(§1) MCF-7 and AGS cells were seeded at 2.5 × 10^4 cells in 100 µL/well while NCI-N87 was seeded at 5.0 × 10^4 cells in 100 µL/well in opaque-walled 96-well plate. Control wells containing medium (supplemented with 10% FBS and 1% penicillin/streptomycin) without cells to determine background luminescence were also prepared. The cells were left to attach overnight in the plate. Culture medium was aspirated and fresh medium added to the wells before reconstituted extracts of P. dioica (methanol extract, 50% methanol fraction) and isolated compounds (1–3, and quercitrin) at 100, 50, 20, 10 and 5 µg/mL were added to experimental wells. Drug controls (5-fluorouracil and doxorubicin) and vehicle control (0.02% DMSO) wells were also prepared simultaneously, and the plate was incubated in a humidified incubator at 37 °C in an atmosphere of 5% CO2 for 72 h. At the end of the incubation period, the plate and its contents were equilibrated to room temperature for approximately 30 min. A 100 µL volume of CellTiter-Glo 2.0 Reagent (Promega Corporation, Madison, WI) was added to each well. The contents were mixed for 2 min on an orbital shaker to induce cell lysis and the plate was incubated at room temperature for 10 min to stabilize the luminescent signal. Luminescence signal was read using the Synergy HT Plate reader (Biotek, Winooski, VT) and Gen5 1.11 software. The IC50 defined as the concentration that causes 50% inhibition of cell growth after exposure to extract for 72 h was calculated using log (inhibitor) vs. normalized response analysis with GraphPad Prism 7 (GraphPad Software, Inc., La Jolla, CA).
A general note: ATP-based viability assays read luminescence as a measure of living cells.

For assay [1], the system named is MCF-7 cells. Kind of assay: Cell viability assay (CellTiter-Glo 2.0), MCF-7. The format is cell-based. The note with it: Homo sapiens, MCF7; MCF-7, 72 h; read-out: IC50 (cell growth). On the procedure:
as §1

The subject of another assay is AGS cells. Kind of assay: Cell viability assay (CellTiter-Glo 2.0), AGS. Format: cell-based. The note with it: Homo sapiens, 72 h, read-out: IC50 (cell growth). The protocol: as §1
Assay [2] has as its system oestrogen responsive SEAP reporter gene (ERE) in MCF-7 cells. Kind of assay: Oestrogen-responsive SEAP reporter gene assay in transfected MCF-7 cells. The format is cell-based, human. The note with it: for SEAP activity in combination with E2: 1 μM compound + 10 nM E2; for fold increase in SEAP expression / SEAP reporter gene expression/activity, compound alone: 1 μM; for fold increase in SEAP expression: compound alone; for SEAP reporter gene expression/activity, compound alone: vs. control. The protocol:
In addition to the ERβ binding assay, oestrogenic activity was determined by an oestrogen-responsive reporter gene assay consisting of MCF-7 cells transfected with a construct containing a secreted alkaline phosphatase (SEAP) gene that is induced through an oestrogen response element (ERE). MCF-7 (HTB-22) human breast cancer cells (obtained from American Type Culture Collection, Manassas, VA) were maintained in Dulbecco’s modified Eagle’s medium containing 10% FBS and 100 U/mL penicillin and 100 μg/mL streptomycin in 75 cm^2 flasks. Forty-eight hours prior to transfection, the cells were maintained in phenol red free DMEM medium supplemented with 0.5% FCS, in a humidified atmosphere with 5% CO2 at 37 °C. For transfection, 0.5 × 10^5 cells were seeded per well of a 96-well plate in OPTI-MEM supplemented with dextran-charcoal stripped FBS. After 4 h, serum concentration was reduced to 1%. Prior to transfection, cells were washed with DMEM and incubated in phenol red-free OPTI-MEM without FBS as described by Nozawa et al. ([2005]).
The cells were transfected with the reporter vector pERE-TA-SEAP, coding for the SEAP gene (Clontech, Palo Alto, CA) (Cullen and Malim [1992]; Treeck et al. [2003]). MCF-7 cells were transfected using 0.5 μL Lipofectamine 2000 (Invitrogen, Carlsbad, CA), and 0.1 μg plasmid DNA including the SEAP vector per well of a 96-well plate according to the manufacturer’s instructions. As a negative control, cells were transfected with reporter vector pTA-SEAP2 using Lipofectamine 2000. After 12 h of transfection, the media were replaced with phenol-free Dulbecco’s modified Eagle’s medium containing 10% dextran-coated charcoal stripped FBS. Cells were treated with 1 μM 1–3 with and without 10 nM E2 or 1 μM ICI 182,780. Estradiol was used as the positive control and DMSO as the negative control. Cells were treated for 12 h, then the medium was harvested, centrifuged and 25 μL from each well was transferred to a new 96 well plate. The SEAP activity was measured using the Great EscAPe SEAP Chemiluminescence High-Throughput Detection Kit (Clontech, Palo Alto, CA) using a 96-well luminometer according to the manufacturer’s instructions. To assess novel mechanisms of action other than ER, we tested the extract and fractions in a HER2/neu tyrosine kinase assays (Barbacci et al. [2003]; HTScan HER2/ErbB2 kinase Assay Kit, Cell Signaling Tech., 96-well plates, high throughput), using the methods as described by the manufacturer.
In general terms: In a reporter assay the amount or activity of a reporter protein is the signal.

For another assay, the target named is T1, full-length ERβ (Homo sapiens, UniProt Q92731).
T1 construct: host or cells: Sf9 insect cells
Kind of assay: Competitive radioligand oestrogen receptor binding assay (3H-estradiol). The note with it: 0.5 nM 3H-estradiol; tested at 20–100 μg/mL. The protocol:
A competitive radioligand-binding assay using full-length ERβ was used in the bioassay-guided fractionation of the crude methanol extract. The assay was performed as previously described (Obourn et al. [1993]; Doyle et al. [2009]). Briefly, recombinant human oestrogen receptor from insect Sf9 cells (α or β) was incubated with the test sample (50 μg/mL) plus 0.5 nM 3H-estradiol at 4 °C overnight. At the completion of incubation, 100 μL of a 50% hydroxylapatite slurry (in […] Tris, pH 7.4, 1 mM EDTA, 1 mM EGTA) was added and allowed to bind the ER-ligand complex for 40 min. The hydroxylapatite was washed three times with 0.5 mL of 40 mM Tris, pH 7.4, 1 mM EDTA, 1 mM EGTA and 11 mM KCl. The hydroxylapatite pellets were suspended in 1 mL of ethanol and counted in 5 mL of scintillation fluid, and the receptor-bound 3H-estradiol was measured. […] The median inhibitory concentration of 1 was determined by testing at concentrations of 20–100 μg/mL. All tests were performed in triplicate, and the results were determined from three independent experiments.

Assay [3] has as its system Bcl-2 and Bax mRNA in MCF-7 cells. Kind of assay: qPCR for apoptotic gene expression in MCF-7 cells. To be noted: MCF-7, at the IC50, 24 h. Format: cell-based, human. On the procedure:
MCF-7 cells were seeded at a density of 1 × 10^6 cells per well in a six-well plate and incubated overnight for cell attachment. […] Vehicle-treated control cells served as the negative control. The concentration and quality of RNA were determined by measuring absorbance at 260 nm and 280 nm on SynergyHT Take 3 session (Biotek, Winooski, VT) and Gen5 1.11 software.
Total RNA was reverse transcribed and amplified using Power SYBR Green RNA-to-CT 1-step kit (Applied Biosystems, Foster City, CA) as described by manufacturer using a Step-One Plus Real Time PCR System (Applied Biosystem, Foster City, CA). Briefly, each reaction was performed in triplicate in a 10 μL volume containing Power SYBR Green RT-PCR Mix (2×), 200 nM of each primers, RT Enzyme Mix (125×) and 100 ng RNA. The cycling conditions were as follows: 48 °C for 30 min, 95 °C for 10 min, followed by 50 cycles of 95 °C for 15 s and 60 °C for 1 min. PCR reaction specificity was confirmed by melt curve analysis at 95 °C for 15 s, 60 °C for 15 s, 95 °C for 15 s. The quantitation of gene expression was performed using β-actin as an endogenous control and relative to the calibrator (control cells) using the ΔΔCt method. Melting curves for each primer set were performed prior to the use of the primers.

In the next assay the test system is caspase 8 in MCF-7 cells. Kind of assay: Caspase-Glo 8 apoptosis assay in MCF-7 cells. The format is cell-based, human. To be noted: compound 2 at IC50 concentration (55 µg/mL), 2 h. On the procedure: MCF-7 cells were seeded in triplicate at a density of 3.0 × 10^4 cells in 100 µL/well in opaque-walled 96-well plates. The cells were left to attach overnight in the plate. Compound 2 at 55 µg/mL was added to the test wells. Caspase-Glo® 8 Reagents (Promega Corporation, Madison, WI) were prepared according to manufacturer’s instruction and allowed to equilibrate to room temperature. The test plates containing treated cells as well as controls were removed from the incubator after 2 h of incubation and allowed to equilibrate to room temperature. A 100 μL volume of Caspase-Glo® 8 Reagent was added to each well of a 96-well plate containing 100 μL of cell culture medium (blank), non-treated cells (negative control) in culture medium, and treated cells in culture medium. The contents of wells were gently mixed using a plate shaker at 300–500 rpm for 30 s and incubated at room temperature for 1 h. The luminescence of each sample was read using the Synergy HT Plate reader (Biotek, Winooski, VT) and Gen5 1.11 software.

Assay [4] has as its system MCF-7 cells. Kind of assay: ApoTox-Glo triplex assay (viability, cytotoxicity, caspase 3/7) in MCF-7 cells. The format is cell-based, human. To be noted: MCF-7, 55 µg/mL. On the procedure: Ninety-six (96) well assay plates containing MCF-7 cells in medium at a density of 1.0 × 10^4 cells in 100 µL/well in triplicate were set up. […] Plates were incubated appropriately before addition of 20 μL of viability/cytotoxicity reagent containing both GF-AFC substrate and bis-AAF-R110 substrate to all wells and briefly mixed by orbital shaking (300–500 rpm for ∼30 s). Plates were incubated for 30 min at 37 °C and fluorescence was measured at 400ex/505em (viability) and 485ex/520em (cytotoxicity). A 100 μL volume of Caspase-Glo® 3/7 reagent was added to all wells, briefly mixed by orbital shaking (300–500 rpm for ∼30 s), and incubated for 30 min at room temperature. Luminescence was measured using the Synergy HT Plate reader (Biotek, Winooski, VT) and Gen 5 1.11 software to detect caspase activation.

T1 sequence (Q92731 whole entry): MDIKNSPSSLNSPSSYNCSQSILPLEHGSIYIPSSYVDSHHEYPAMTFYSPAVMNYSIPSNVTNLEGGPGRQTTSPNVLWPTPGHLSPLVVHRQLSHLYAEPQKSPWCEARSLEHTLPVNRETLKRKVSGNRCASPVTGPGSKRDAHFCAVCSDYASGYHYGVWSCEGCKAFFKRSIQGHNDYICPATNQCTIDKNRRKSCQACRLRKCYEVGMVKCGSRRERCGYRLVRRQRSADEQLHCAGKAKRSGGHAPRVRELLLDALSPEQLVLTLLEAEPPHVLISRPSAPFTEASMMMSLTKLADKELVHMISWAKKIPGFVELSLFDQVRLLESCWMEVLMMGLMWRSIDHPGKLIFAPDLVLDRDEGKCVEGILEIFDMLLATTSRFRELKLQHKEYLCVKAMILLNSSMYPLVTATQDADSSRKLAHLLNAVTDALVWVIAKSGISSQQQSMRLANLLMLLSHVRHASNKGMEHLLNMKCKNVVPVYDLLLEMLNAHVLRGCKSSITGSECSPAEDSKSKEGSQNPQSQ

Usually IC50 stands for the concentration that inhibits the measured activity by half. Turning to `Cc1c(O)c(C)c2oc(Oc3ccc(O)cc3)cc(=O)c2c1O` [Compound 1, 2-(p-hydroxyphenoxy)-6,8-dimethyl-5,7-dihydroxychromone], the IC50 is over 100 µg/mL in the assay with NCI-N87 cells, over 100 µg/mL in the assay with MCF-7 cells [1], over 100 µg/mL with AGS cells and 390 µM at full-length ERβ. Besides, the “SEAP activity in combination with E2” value in assay [2] is given as “did not enhance SEAP activity”. Moreover, in assay [2] (1 μM compound + 1 μM ICI 182,780), the “SEAP expression in the presence of ICI 182,780” value was “attenuated”. In addition, the “fold increase in SEAP expression” value in assay [2] is 6.2 fold. The “SEAP reporter gene expression/activity, compound alone” value in assay [2] is on record as “significantly enhanced”.

With `Cc1c(O)c(C)c2oc(-c3ccc(OC4OC(CO)C(O)C(O)C4O)cc3)cc(=O)c2c1O` (stereo not shown) [Compound 2, syzalterin-4′-O-glucopyranose], the IC50 in the assay with NCI-N87 cells came out at 51.2 µg/mL. The IC50 in the assay on MCF-7 cells [1] was determined as 54.3 µg/mL. For the same compound, in the assay on AGS cells, the IC50 came out at 38.1 µg/mL. Besides, in assay [3], the “Bax mRNA expression” value is given as “little effects”, the Bax/Bcl-2 ratio is reported as about 3.5 and the “Bcl-2 mRNA expression” value is on record as “decreased”. The “caspase 8 activity” value in the assay on caspase 8 in MCF-7 cells is reported as “weakly enhanced”. In addition, the “apoptosis in MCF-7 cells” value in the assay on MCF-7 cells [4] is “induced apoptosis”. Moreover, in assay [2], the “fold increase in SEAP expression” value is on record as 6.0 fold and the “SEAP reporter gene expression/activity, compound alone” value is “significantly increased SEAP activity”.

For the compound `O=c1[nH]cc(F)c(=O)[nH]1` [Compound 5FU, 5-fluorouracil, reference compound], the values for the IC50 in the assay with NCI-N87 cells, in the assay on MCF-7 cells [1] and in the assay on AGS cells were 0.097 µg/mL, 1.37 µg/mL and 18.6 µg/mL, respectively.

Turning to `COc1cccc2c1C(=O)c1c(O)c3c(c(O)c1C2=O)C[C@@](O)(C(=O)CO)C[C@@H]3O[C@H]1C[C@H](N)[C@H](O)[C@H](C)O1` [Doxo, doxorubicin, reference compound], the IC50 amounted to 0.048 µg/mL in the assay with NCI-N87 cells and 0.079 µg/mL with AGS cells.

As for `C[C@@H]1O[C@@H](Oc2c(-c3ccc(O)c(O)c3)oc3cc(O)cc(O)c3c2=O)[C@H](O)[C@H](O)[C@H]1O` [Quercitrin], the IC50 with NCI-N87 cells, in the assay with MCF-7 cells [1] and with AGS cells was over 100 µg/mL in each case. In addition, the “SEAP activity in combination with E2” value in assay [2] is “some significant anti-oestrogenic effects”. Also, the “SEAP reporter gene expression/activity, compound alone” value in assay [2] is recorded as “neither quercitrin nor 3 alone significantly enhanced SEAP activity”.

These data come from article PMC6130578, “Isolation and identification of three new chromones from the leaves of Pimenta dioica with cytotoxic, oestrogenic and anti-oestrogenic effects” (Pharmaceutical Biology, 2018).
